From patent US20100190824A1, “Novel Substituted Piperidones as HSP Inducers” (priority 2007, published 2010)

How the values were obtained:
[1] = system: rat orthotopic liver transplantation model; details: donors treated; with vehicle all recipients died; cited from earlier work
injured motoneurones = details: cited from earlier work
[2] = system: permeability of blood brain barrier; details: vascular insult evoked by sub-arachnoidal autologous blood; cited from earlier work
[3] = system: streptozotocin-induced neuropathy; details: cited from earlier work
HSP70b mRNA [4] = assay: Cellular expression of HSP-70 mRNA in Hela cells (real-time PCR); format: cell-based; details: fold induction of HSP-70b mRNA relative to the vehicle treated control; 4 hours; normalized to 18S rRNA
Protocol: (§1) Experiments set forth in this section were conducted to determine whether the compounds of the present invention are able to elevate the expression of HSP-70 gene in cells.
(§2) Hela cell-line or primary mixed neurons derived from neonatal rat cerebellum were employed. Induction was carried out for the indicated dose(s) for 4 hours duration and total RNA was isolated. Expression of HSP70b mRNA along-with expression of 18S rRNA was monitored by real-time PCR. HSP70b mRNA expression was normalized relative to the expression of 18S rRNA.
(§3) The results for test compounds were expressed as fold induction of HSP-70 mRNA relative to vehicle treated control and are as shown in Table 2 & 3.

TNF-α mRNA = assay: Inhibition of LPS-induced TNF-α expression in PMA differentiated THP-1 cells; format: cell-based, Human; details: LPS (1 ug/ml) and compound for 4 hours, LPS alone as 100%
Protocol: The purpose of the present study was to determine the inhibition of lipopolysaccharide(LPS)-induced TNF-α expression in phorbol merstyl ester (PMA) differentiated THP-1 cells.
Human monocytic leukaemia cell line (THP-1), differentiated into macrophage-like cells by PMA treatment was employed. Differentiated cells were treated with either LPS (1 ug/ml) alone or with LPS (1 ug/ml) and compound for 4 hours. Total RNA was isolated and expression of TNF-αmRNA along-with expression of 18S rRNA was monitored by real-time PCR. TNF-α mRNA expression was normalized relative to the expression of 18S rRNA Considering TNF-α expression for cells treated with LPS alone as 100%; the results for test compounds were expressed as % inhibition of TNF-α expression and are as shown in Table 4

HSP70b mRNA [5] = assay: Cellular expression of HSP-70 mRNA in primary mixed neurons (real-time PCR); format: cell-based; details: fold induction of HSP70b mRNA relative to vehicle treated control; primary mixed neurons from neonatal rat cerebellum; 4 hours; normalized to 18S rRNA
Protocol: as §1, §2, §3

male Sprague Dawley rats = assay: Neuroprotective activity, transient cerebral ischemia (intraluminal suture occlusion); format: in vivo, rat
Protocol: Transient cerebral ischemia (for 2 hit) was induced in male Sprague Dawley rats of 240-270 g body weight under halothane anaesthesia by the intraluminal suture occlusion technique—inserting a 3-0 polyamide suture from proximal external carotid artery into the lumen of internal carotid artery (Longa E Z. et al. Stroke 20: 84-91; 1989). During the entire surgical procedure for the induction of stroke, the body temperature of the animal was maintained at 37° C., using a homoeothermic blanket. At the end of 2 hrs the suture was removed for reperfusion. The test compound was administered to animals at 8th hour post initiation of occlusion and subsequently at specified interval. At the end of 7 days all the animals were sacrificed and infarct was characterized after staining with triphenyl tetrazolium chloride (TTC). The images of the stained slices were captured using a scanner and was analyzed for infarct size and edema using Scion image software. Neurological scores were obtained at different time points after surgical recovery and improvement was assessed after reperfusion by calculating the percentage change from baseline scores (scores during ischemia).

SMILES: CC(=O)CCC=C(C)CC/C=C(\C)CC/C=C(\C)CCC=C(C)C (mixture of isomers) [Geranylgeranyl acetone]
- 7-day survival of the recipients [1]: ~90%

SMILES: [O-][n+]1cccc(/C(Cl)=N/OC[C@H](O)CN2CCCCC2)c1 [BRX-220]
- motoneurones survived (injured motoneurones; 14 days after injury, 21% in vehicle group): 39%
- motoneurons survived (injured motoneurones; at 10 weeks, 15% in untreated group): 42%

SMILES: OC(CO/N=C(\Cl)c1cccnc1)CN1CCCCC1 (centres unmarked) [Bimoclomol]
- reduction of size of cerebral tissue stained with Evans blue leakage [2]: 39%
- reduction of nerve conduction slowing, motor [3]: 38%
- reduction of nerve conduction slowing, sensory [3]: 42%
- retardation of elevated ischemic resistance [3]: 71%

SMILES: COc1ccc(CC2N(C(=O)C(C)(C)C)CC(=Cc3ccccn3)C(=O)C2(C)C)cc1 (centres unmarked) [Compound 16, 1-(2,2-Dimethyl-propionyl)-2-(4-methoxy-benzyl)-3,3-dimethyl-5-[1-pyridin-2-yl-methylidene]-piperidin-4-one]
- HSP Induction in Hela cells (HSP70b mRNA [4]): (++++) (>1536 fold)
- TNF-alpha Inhibition (TNF-α mRNA): (++++) (>80%)

SMILES: CC1(C)CN(Cc2ccccc2)CC(=Cc2cccc(N3CCOCC3)n2)C1=O [Compound 20, 1-Benzyl-3,3-dimethyl-5-[1-(6-morpholin-4-yl-pyridin-2-yl)-methylidene]-piperidin-4-one]
- HSP Induction in Hela cells (HSP70b mRNA [4]): (+++) (193-1536 fold)
- TNF-alpha Inhibition (TNF-α mRNA): (++) (41-60%)

SMILES: CC1(C)CN(C(=O)Oc2ccccc2)CC(=Cc2cccc(N3CCCCC3)n2)C1=O [Compound 35, 3,3-Dimethyl-4-oxo-5-[1-(3,4,5,6-tetrahydro-2H-[1,2′]bipyridinyl-6′-yl)-methylidene]-piperidine-1-carboxylic acid phenyl ester]
- HSP Induction in Hela cells (HSP70b mRNA [4]): (++++) (>1536 fold)

SMILES: CC1(C)CN(C(=O)Oc2ccccc2)CC(=Cc2cccc(N3CCOCC3)n2)C1=O [Compound 36, 3,3-Dimethyl-5-[1-(6-morpholin-4-yl-pyridin-2-yl)-methylidene]-4-oxo-piperidine-1-carboxylic acid phenyl ester]
- HSP Induction in Hela cells (HSP70b mRNA [4]): (++++) (>1536 fold)

SMILES: CC1(C)CN(Cc2ccccc2)CC(=Cc2nc3ccccc3c(=O)[nH]2)C1=O [Compound 37, 2-[1-Benzyl-5,5-dimethyl-4-oxo-piperidin-3-ylidenemethyl]-3H-quinazolin-4-one]
- HSP Induction in Hela cells (HSP70b mRNA [4]): (++++) (>1536 fold)

SMILES: COc1ccc(CC2N(C(=O)Nc3c(C(C)C)cccc3C(C)C)CC(=Cc3ccccn3)C(=O)C2(C)C)cc1 (centres unmarked) [Compound 68, 2-(4-Methoxy-benzyl)-3,3-dimethyl-4-oxo-5-[1-pyridin-2-yl-methylidene]-piperidine-1-carboxylic acid (2,6-diisopropyl-phenyl)-amide]
- HSP Induction in mixed neuron (HSP70b mRNA [5]): (++++) (>16 fold)
- TNF-alpha Inhibition (TNF-α mRNA): (++++) (>80%)
- % reduction Edema (male Sprague Dawley rats; i.p. 15.2 mg/kg, multiple dose, from 8th hour post initiation of occlusion, 2 h ischemia, sacrificed at 7 days): 51.0%
- % reduction Infarct (male Sprague Dawley rats; i.p. 15.2 mg/kg, multiple dose, from 8th hour post initiation of occlusion, 2 h ischemia, sacrificed at 7 days, TTC staining): 30.0%
- % improvement Mean Neurological Score (male Sprague Dawley rats; i.p. 15.2 mg/kg, multiple dose, percentage change from baseline scores (scores during ischemia)): 61.1%
- neuroprotective activity in an animal model of cerebral ischemia (male Sprague Dawley rats; result in words): reduced infarct size and brain edema with improvement in neurological deficit
